For assay [1], the target named is Calcium/calmodulin-dependent protein kinase kinase 2 (Homo sapiens) (UniProt Q96RR4). Description: Inhibition of human CAMKK2 assessed as residual activity at 1 uM using MBP as substrate by [gamma-33P]-ATP assay relative to control.
Assay [2] has as its target CDK1/Cyclin E (Homo sapiens) (UniProt P06493+P24864). Description: Inhibition of human CDK1/cyclinE assessed as residual activity at 1 uM using RB protein as substrate by [gamma-33P]-ATP assay relative to control. The class given is protein-complex assay.
Assay [3] addresses Casein kinase I isoform gamma-1 (Homo sapiens) (UniProt Q9HCP0). In words: Inhibition of human CK1gamma1 assessed as residual activity at 1 uM using KRRRAL[pS]VASLPGL as substrate by [gamma-33P]-ATP assay relative to control.
The target of assay [4] is Death-associated protein kinase 1 (Homo sapiens) (UniProt P53355). In words: Inhibition of human DAPK1 assessed as residual activity at 1 uM using KKLNRTLSFAEPG as substrate by [gamma-33P]-ATP assay relative to control.
The target of assay [5] is Serine/threonine-protein kinase DCLK1 (Homo sapiens) (UniProt O15075). In words: Inhibition of human DCAMKL1 assessed as residual activity at 1 uM using KKLNRTLSFAEPG as substrate by [gamma-33P]-ATP assay relative to control.
The target of assay [6] is Ephrin type-A receptor 6 (Homo sapiens) (UniProt Q9UF33). In words: Inhibition of human EPHA6 assessed as residual activity at 1 uM using poly[Glu:Tyr] (4:1) as substrate by [gamma-33P]-ATP assay relative to control.
Assay [7] concerns the target Receptor tyrosine-protein kinase erbB-2 (Homo sapiens) (UniProt P04626). Description: Inhibition of human ERBB2 assessed as residual activity at 1 uM using poly[Glu:Tyr] (4:1) as substrate by [gamma-33P]-ATP assay relative to control.
The target of assay [8] is Serine/threonine-protein kinase ICK (Homo sapiens) (UniProt Q9UPZ9). Description: Inhibition of human LCK2 assessed as residual activity at 1 uM using MBP as substrate by [gamma-33P]-ATP assay relative to control.
Assay [9] concerns the target Serine/threonine-protein kinase Nek6 (Homo sapiens, UniProt Q9HC98). In words: Inhibition of human NEK6 assessed as residual activity at 1 uM using casein as substrate by [gamma-33P]-ATP assay relative to control.
For assay [10], the target named is Protein kinase C theta type (Homo sapiens) (UniProt Q04759). In words: Inhibition of human PKCtheta assessed as residual activity at 1 uM using Histone H1 as substrate by [gamma-33P]-ATP assay relative to control.
Assay [11] addresses STE20/SPS1-related proline-alanine-rich protein kinase (Homo sapiens) (UniProt Q9UEW8). In words: Inhibition of human STK39 assessed as residual activity at 1 uM using MBP as substrate by [gamma-33P]-ATP assay relative to control.
Assay [12] has as its target RAC-gamma serine/threonine-protein kinase (Homo sapiens) (UniProt Q9Y243). In words: Inhibition of human AKT3 assessed as residual activity at 1 uM using KGSGSGRPRTSSFAEG as substrate by [gamma-33P]-ATP assay relative to control.
The target in assay [13] is Aurora kinase B (Homo sapiens) (UniProt Q96GD4). In words: Inhibition of human Aurora B assessed as residual activity at 1 uM using [H-LRRASLG] as substrate by [gamma-33P]-ATP assay relative to control.
For assay [14], the target named is Calcium/calmodulin-dependent protein kinase type 1D (Homo sapiens) (UniProt Q8IU85). Description: Inhibition of human CAMK1D assessed as residual activity at 1 uM using KKALRRQETVDAL as substrate by [gamma-33P]-ATP assay relative to control.
Assay [15] deals with Calcium/calmodulin-dependent protein kinase type IV (Homo sapiens) (UniProt Q16566). In words: Inhibition of human CAMK4 assessed as residual activity at 1 uM using KKLNRTLSFAEPG as substrate by [gamma-33P]-ATP assay relative to control.
The target of assay [16] is Casein kinase I isoform epsilon (Homo sapiens) (UniProt P49674). Description: Inhibition of human CK1E assessed as residual activity at 1 uM using KRRRAL[pS]VASLPGL as substrate by [gamma-33P]-ATP assay relative to control.
The target of assay [17] is Serine/threonine-protein kinase/endoribonuclease IRE2 (Homo sapiens) (UniProt Q76MJ5). In words: Inhibition of human ERN2 assessed as residual activity at 1 uM using MBP as substrate by [gamma-33P]-ATP assay relative to control.
The target in assay [18] is Glycogen synthase kinase-3 beta (Homo sapiens) (UniProt P49841). Description: Inhibition of human GSK3B assessed as residual activity at 1 uM using YRRAAVPPSPSLSRHSSPHQ(pS)EDEEE as substrate by [gamma-33P]-ATP assay relative to control.
The target in assay [19] is Tyrosine-protein kinase ITK/TSK (Homo sapiens) (UniProt Q08881). In words: Inhibition of human ITK assessed as residual activity at 1 uM using MBP as substrate by [gamma-33P]-ATP assay relative to control.
In assay [20] the target is Tyrosine-protein kinase Lck (Homo sapiens) (UniProt P06239). In words: Inhibition of human LCK assessed as residual activity at 1 uM using poly[Glu:Tyr] (4:1) as substrate by [gamma-33P]-ATP assay relative to control.
For assay [21], the target named is MAP kinase-interacting serine/threonine-protein kinase 1 (Homo sapiens) (UniProt Q9BUB5). Description: Inhibition of human MNK1 assessed as residual activity at 1 uM using MBP as substrate by [gamma-33P]-ATP assay relative to control.
Assay [22] concerns the target Serine/threonine-protein kinase 24 (Homo sapiens) (UniProt Q9Y6E0). Description: Inhibition of human MST3 assessed as residual activity at 1 uM using MBP as substrate by [gamma-33P]-ATP assay relative to control.
Assay [23] concerns the target Mitogen-activated protein kinase 12 (Homo sapiens) (UniProt P53778). In words: Inhibition of human p38gamma assessed as residual activity at 1 uM using MBP as substrate by [gamma-33P]-ATP assay relative to control.
The target of assay [24] is Protein kinase C gamma type (Homo sapiens) (UniProt P05129). In words: Inhibition of human PKCgamma assessed as residual activity at 1 uM using ERMRPRKRQGSVRRRV as substrate by [gamma-33P]-ATP assay relative to control.
The target of assay [25] is Serine/threonine-protein kinase PLK3 (Homo sapiens) (UniProt Q9H4B4). In words: Inhibition of human PLK3 assessed as residual activity at 1 uM using casein as substrate by [gamma-33P]-ATP assay relative to control.
The target in assay [26] is SNF-related serine/threonine-protein kinase (Homo sapiens) (UniProt Q9NRH2). In words: Inhibition of human SNRK assessed as residual activity at 1 uM using MBP as substrate by [gamma-33P]-ATP assay relative to control.
In assay [27] the target is Tyrosine-protein kinase TXK (Homo sapiens) (UniProt P42681). Description: Inhibition of human TXK assessed as residual activity at 1 uM using EAIYAAPFAKKK as substrate by [gamma-33P]-ATP assay relative to control.

Data on two compounds can be found in ChEMBL document CHEMBL4325871 (Eur J Med Chem, 2019).

Each structure is given as a SMILES string.

Chain of Serine/threonine-protein kinase Nek6 (Q9HC98 whole entry): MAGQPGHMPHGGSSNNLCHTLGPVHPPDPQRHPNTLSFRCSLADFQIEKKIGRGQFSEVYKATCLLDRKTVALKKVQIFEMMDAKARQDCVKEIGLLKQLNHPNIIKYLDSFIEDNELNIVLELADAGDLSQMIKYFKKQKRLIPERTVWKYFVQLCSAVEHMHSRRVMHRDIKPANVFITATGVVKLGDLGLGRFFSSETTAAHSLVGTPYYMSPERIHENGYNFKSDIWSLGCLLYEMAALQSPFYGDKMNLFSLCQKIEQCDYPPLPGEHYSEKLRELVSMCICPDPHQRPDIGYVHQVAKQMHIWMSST
Chain of Calcium/calmodulin-dependent protein kinase type IV (Homo sapiens) (Q16566 whole entry, canonical isoform): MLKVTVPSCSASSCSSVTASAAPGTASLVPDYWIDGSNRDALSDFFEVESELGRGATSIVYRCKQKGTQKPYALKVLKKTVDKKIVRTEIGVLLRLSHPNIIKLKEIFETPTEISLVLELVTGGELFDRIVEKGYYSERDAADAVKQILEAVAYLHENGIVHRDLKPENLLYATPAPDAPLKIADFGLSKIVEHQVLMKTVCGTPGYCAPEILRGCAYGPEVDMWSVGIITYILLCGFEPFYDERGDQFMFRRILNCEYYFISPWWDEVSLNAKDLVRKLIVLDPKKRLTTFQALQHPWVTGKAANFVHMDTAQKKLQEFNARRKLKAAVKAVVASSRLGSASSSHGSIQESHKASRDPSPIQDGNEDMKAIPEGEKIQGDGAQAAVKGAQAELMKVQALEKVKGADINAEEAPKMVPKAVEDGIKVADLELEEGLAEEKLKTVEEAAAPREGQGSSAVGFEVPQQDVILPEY
Chain of Tyrosine-protein kinase Lck (Homo sapiens) (P06239 2-509 limits assumed): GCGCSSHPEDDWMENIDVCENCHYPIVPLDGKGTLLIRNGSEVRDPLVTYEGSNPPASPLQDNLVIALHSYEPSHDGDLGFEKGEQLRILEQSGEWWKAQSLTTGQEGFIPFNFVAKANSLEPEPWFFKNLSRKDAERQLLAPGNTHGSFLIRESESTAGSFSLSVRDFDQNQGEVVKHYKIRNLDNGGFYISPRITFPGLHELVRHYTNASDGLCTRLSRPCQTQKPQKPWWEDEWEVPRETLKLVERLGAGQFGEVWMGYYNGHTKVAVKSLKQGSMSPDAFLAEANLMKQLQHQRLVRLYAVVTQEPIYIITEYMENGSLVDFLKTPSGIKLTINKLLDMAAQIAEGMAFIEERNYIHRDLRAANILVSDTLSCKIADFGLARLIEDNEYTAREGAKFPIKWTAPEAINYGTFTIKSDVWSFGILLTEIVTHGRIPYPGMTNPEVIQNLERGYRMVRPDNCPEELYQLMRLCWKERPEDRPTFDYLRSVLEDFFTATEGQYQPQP
Chain of SNF-related serine/threonine-protein kinase (Homo sapiens) (Q9NRH2 whole entry): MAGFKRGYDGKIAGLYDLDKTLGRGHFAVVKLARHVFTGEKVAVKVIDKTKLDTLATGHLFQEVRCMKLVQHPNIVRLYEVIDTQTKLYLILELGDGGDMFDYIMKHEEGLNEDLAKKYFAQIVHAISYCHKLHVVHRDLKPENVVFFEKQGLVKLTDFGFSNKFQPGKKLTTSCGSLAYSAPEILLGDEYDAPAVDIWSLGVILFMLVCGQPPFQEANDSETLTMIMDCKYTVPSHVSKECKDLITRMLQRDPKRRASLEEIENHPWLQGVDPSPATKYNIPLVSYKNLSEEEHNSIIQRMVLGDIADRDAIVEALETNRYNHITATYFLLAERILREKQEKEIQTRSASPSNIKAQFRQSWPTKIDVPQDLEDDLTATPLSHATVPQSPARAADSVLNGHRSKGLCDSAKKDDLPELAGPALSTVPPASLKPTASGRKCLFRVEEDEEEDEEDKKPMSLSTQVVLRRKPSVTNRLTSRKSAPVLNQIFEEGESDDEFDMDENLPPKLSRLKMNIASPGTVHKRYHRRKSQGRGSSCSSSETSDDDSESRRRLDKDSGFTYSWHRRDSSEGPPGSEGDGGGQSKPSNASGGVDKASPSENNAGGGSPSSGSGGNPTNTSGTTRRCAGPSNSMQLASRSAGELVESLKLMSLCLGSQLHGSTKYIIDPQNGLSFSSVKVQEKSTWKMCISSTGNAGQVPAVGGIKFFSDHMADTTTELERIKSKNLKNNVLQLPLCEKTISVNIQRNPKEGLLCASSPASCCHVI
Chain of Tyrosine-protein kinase TXK (Homo sapiens) (P42681 whole entry): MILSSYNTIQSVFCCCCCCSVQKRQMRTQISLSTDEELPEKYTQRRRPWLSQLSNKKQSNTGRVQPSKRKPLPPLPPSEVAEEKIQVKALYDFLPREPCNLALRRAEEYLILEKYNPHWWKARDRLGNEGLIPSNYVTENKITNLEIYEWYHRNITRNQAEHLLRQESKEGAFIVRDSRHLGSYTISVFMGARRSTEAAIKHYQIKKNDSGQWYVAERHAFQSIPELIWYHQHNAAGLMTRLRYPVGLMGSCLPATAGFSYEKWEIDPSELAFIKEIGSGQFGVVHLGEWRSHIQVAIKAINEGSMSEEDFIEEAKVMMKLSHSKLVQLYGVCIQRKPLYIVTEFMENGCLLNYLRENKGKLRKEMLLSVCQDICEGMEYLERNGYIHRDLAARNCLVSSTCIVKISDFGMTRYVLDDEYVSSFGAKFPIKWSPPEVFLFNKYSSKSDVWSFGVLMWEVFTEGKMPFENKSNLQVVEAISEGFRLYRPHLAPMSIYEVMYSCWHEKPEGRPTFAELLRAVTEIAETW
Chain of Tyrosine-protein kinase ITK/TSK (Homo sapiens) (Q08881 whole entry): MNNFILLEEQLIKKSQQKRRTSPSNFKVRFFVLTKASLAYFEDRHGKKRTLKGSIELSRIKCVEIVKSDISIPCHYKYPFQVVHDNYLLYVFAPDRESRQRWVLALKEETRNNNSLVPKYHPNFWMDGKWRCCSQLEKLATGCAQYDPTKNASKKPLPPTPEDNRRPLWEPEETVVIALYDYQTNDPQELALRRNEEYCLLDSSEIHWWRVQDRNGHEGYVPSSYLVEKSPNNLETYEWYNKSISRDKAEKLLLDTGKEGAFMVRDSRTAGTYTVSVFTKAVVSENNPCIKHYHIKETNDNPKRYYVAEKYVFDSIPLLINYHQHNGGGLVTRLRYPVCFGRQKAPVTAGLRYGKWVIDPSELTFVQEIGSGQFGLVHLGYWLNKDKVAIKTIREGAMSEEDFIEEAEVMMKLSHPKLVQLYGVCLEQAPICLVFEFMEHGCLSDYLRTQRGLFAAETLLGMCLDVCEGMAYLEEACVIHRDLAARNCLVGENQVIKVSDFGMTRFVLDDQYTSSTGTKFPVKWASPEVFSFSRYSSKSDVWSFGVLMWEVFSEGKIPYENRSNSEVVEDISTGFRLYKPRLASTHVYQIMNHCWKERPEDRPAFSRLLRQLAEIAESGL
Chain of Aurora kinase B (Homo sapiens) (Q96GD4 whole entry): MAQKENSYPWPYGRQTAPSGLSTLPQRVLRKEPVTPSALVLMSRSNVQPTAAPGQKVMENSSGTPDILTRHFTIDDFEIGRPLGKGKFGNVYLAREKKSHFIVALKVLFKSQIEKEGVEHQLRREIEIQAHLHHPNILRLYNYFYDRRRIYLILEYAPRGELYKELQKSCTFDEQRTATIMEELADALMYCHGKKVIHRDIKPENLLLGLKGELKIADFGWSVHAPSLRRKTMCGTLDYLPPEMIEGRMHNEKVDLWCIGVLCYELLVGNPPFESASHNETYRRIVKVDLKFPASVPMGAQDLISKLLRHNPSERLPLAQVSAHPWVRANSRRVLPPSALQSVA
Chain of Death-associated protein kinase 1 (Homo sapiens) (P53355 whole entry, looked up): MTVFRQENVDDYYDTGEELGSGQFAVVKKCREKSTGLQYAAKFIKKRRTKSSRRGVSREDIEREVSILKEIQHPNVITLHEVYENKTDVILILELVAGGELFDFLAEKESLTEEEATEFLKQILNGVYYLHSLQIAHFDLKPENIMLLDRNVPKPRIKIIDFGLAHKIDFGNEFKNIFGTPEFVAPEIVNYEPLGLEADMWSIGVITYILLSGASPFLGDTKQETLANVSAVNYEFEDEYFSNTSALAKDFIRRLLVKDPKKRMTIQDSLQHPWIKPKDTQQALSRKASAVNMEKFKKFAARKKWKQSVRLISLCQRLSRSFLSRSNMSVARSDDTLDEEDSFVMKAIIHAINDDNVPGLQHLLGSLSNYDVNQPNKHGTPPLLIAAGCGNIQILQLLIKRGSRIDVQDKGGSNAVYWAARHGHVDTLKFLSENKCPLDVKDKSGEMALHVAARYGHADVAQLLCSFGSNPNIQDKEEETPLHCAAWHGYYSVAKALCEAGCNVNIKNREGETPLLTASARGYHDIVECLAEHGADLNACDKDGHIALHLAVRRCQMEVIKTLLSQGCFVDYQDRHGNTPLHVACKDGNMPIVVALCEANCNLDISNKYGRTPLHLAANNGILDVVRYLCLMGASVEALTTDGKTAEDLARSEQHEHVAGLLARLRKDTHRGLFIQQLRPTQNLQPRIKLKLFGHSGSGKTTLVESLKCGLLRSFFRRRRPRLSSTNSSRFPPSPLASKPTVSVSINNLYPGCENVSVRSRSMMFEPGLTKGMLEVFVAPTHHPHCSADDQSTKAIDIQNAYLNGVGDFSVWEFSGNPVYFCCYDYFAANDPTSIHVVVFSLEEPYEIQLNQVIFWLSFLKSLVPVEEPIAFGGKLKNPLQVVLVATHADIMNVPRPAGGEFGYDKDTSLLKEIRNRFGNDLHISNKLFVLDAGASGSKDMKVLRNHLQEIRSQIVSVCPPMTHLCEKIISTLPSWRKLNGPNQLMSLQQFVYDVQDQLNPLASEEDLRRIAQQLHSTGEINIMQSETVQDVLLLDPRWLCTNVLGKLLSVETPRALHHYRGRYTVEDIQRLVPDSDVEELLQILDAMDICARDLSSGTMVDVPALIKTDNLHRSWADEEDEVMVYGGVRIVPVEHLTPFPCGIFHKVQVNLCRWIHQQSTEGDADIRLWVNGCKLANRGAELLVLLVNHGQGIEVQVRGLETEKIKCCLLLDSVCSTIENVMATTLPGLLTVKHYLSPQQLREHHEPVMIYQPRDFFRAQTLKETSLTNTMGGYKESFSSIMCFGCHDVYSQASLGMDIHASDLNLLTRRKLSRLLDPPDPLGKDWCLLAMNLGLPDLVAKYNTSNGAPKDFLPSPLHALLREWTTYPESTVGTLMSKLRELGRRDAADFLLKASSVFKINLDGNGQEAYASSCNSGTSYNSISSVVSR

Turning to `ClC/C=C/C[N+]12CN3CN(CN(C3)C1)C2`, the Activity is 83.7 to 87.4% in [1]; 98.8 to 100% in assay [2]; 94.4 to 96.5% in [3]; 119 to 135% in assay [4]; 92.8 to 93.2% in assay [5]; 93.1 to 94% in assay [6]. The Activity lay within 96.7 to 96.8% in assay [7]; 85.1 to 89.7% in [8]; 95.3 to 95.6% in assay [9]; 111 to 115% in assay [10]; 94.4 to 94.9% in [11].
With `C(=C\c1ccccc1)/C[N+]12CN3CN(CN(C3)C1)C2`, the Activity in assay [12] fell in the range of 95.9 to 96%; in assay [13] it was 95.1 to 95.4%; in assay [14], 98.4 to 98.8%; in assay [15], 92.2 to 94.4%; in assay [16] it was 90.1 to 93.2%; in assay [17], 94.5 to 96.6%. Besides, the Activity fell in the range of 93.6 to 94.9% in [18]; 91.3 to 92.2% in assay [19]; 94.2 to 95.5% in assay [20]; 96.3 to 99.7% in assay [21]; 107 to 112% in assay [22]; 93.7 to 94.8% in [23]. Moreover, the Activity was 94.5 to 96.3% in assay [24], 96.3 to 96.8% in assay [25], 79.8 to 81% in assay [26] and 93.5 to 93.8% in assay [27].
